According to US10829478B2, “5-[3-[piperazin-1-yl]-3-oxo-propyl]-imidazolidine-2,4-dione derivatives as ADAMTS 4 and 5 inhibitors for treating e.g. osteoarthritis” (Galapagos NV, priority 2016, dated 2020):
Where two headings read alike, the source gives them in different places.

Experiments:
human ADAMTS4 = human ADAMTS4 (Homo sapiens (Human), UniProt O75173); assay: hADAMTS-4 TBIS-1 cleavage assay, Protocol 2; assay type: biochemical
human ADAMTS-5 = human ADAMTS-5 (Homo sapiens (Human), UniProt Q9UNA0); assay: hADAMTS-5 TBIS-1 cleavage assay, Protocol 3; assay type: biochemical; details: 90 min at 37° C., read-out: hADAMTS-5 potency IC50
Procedure: The reaction is initiated by adding to the assay plate TBIS-1 (10 μL, 4.5 μM, Anaspec) in the same buffer.
Finally, the fluorescence is read on the Envision (Perkin Elmer) after an incubation of 90 min at 37° C. (Excitation 485 nm, emission 530).

human ADAMTS6 = human ADAMTS6 (Homo sapiens (Human), UniProt Q9UKP5); assay: hADAMTS-6 fluorescent based protease assay (520 MMP FRET substrate XII); assay type: biochemical; details: 37° C. for 2 h; read-out: hADAMTS-6 potency IC50
Procedure: The IC50 value for test compounds can be determined in a fluorescent based protease assay.
The substrate contains sequence Arg-Pro-Lys-Pro-Tyr-Ala-Nva-Trp-Met-Lys (SEQ ID NO: 7) with attached a fluorescent probe and a quencher. Without ADAMTS6, the emission of the probe is quenched. If the substrate is cleaved by ADAMTS6, the emission of the probe is not quenched anymore. Inhibition of ADAMTS6 activity, will result in a decrease of the signal.
To perform the assay, 4 μL of a dilution series of compound in water, starting from 20 μM highest concentration, ⅕ dilution, is added to the wells. 2 ng ADAMTS6 enzyme is diluted in 25 mM Tris pH8.0, 0.05% CHAPS, 2.5 mM CaCl2 in a total volume of 26 μL (final concentration 0.73 nM). The reaction is started by addition of 10 μL of 1 μM 520 MMP FRET Substrate XII (final concentration, diluted in same buffer as described above) and the mixture is incubated at 37° C. for 2 h. […] After this incubation, cleavage of the substrate is measured using the Envision (Perkin Elmer, exc485/em530).

human MMP13 [1] = biological target: T1, human MMP13 (Homo sapiens (Human), UniProt P45452); assay: hMMP13 assay, Protocol 1 (390 MMP FRET Substrate I, Chemicon enzyme); assay type: biochemical; details: Protocol 1, human MMP13 (Chemicon), read-out: hMMP-13 potency IC50
Procedure: (§1) Human MMP13 is preactivated by incubated the enzyme in the same buffer complemented with 1 mM freshly prepared p-Aminophenylmercuric acetate (AMPA) for 1 h at 37° C.

human MMP14 = human MMP14 (Homo sapiens (Human), UniProt P50281); assay: hMMP14 assay (390 MMP FRET Substrate I); assay type: biochemical; details: human MMP14 (Biomol), read-out: hMMP-14 potency IC50
Procedure: The basis for the assay is the cleavage of the substrate 390 MMP FRET Substrate I (Anaspec Cat #AS-27076) by human MMP14 (Biomol, Cat #SE-259).
The reaction is initiated by adding to the assay plate 390 MMP FRET Substrate I (10 μL, 2.5 μM) in the same buffer.
Finally, the fluorescence is read on the Envision (Perkin Elmer) after an incubation of 60 min at room temperature (Excitation 485 nm, Emission 530).

human TACE = human TACE (Homo sapiens (Human), UniProt P78536); assay: biochemical
Procedure: Finally, the fluorescence is read on the Envision (Perkin Elmer) after an incubation of 75 min at room temperature (Excitation 485 nm, Emission 530).

human MMP13 [2] = biological target: T1, human MMP13; assay: hMMP13 assay, Protocol 2 (390 MMP FRET Substrate I, Enzo enzyme); assay type: biochemical; details: Protocol 2, human MMP13 (Enzo Life Sciences), read-out: hMMP-13 potency IC50
Procedure: as §1

[3] = Protocol 2, 180 min at 37° C., read-out: ADAMTS4 potency IC50

human TACE, sequence (P78536 215-671): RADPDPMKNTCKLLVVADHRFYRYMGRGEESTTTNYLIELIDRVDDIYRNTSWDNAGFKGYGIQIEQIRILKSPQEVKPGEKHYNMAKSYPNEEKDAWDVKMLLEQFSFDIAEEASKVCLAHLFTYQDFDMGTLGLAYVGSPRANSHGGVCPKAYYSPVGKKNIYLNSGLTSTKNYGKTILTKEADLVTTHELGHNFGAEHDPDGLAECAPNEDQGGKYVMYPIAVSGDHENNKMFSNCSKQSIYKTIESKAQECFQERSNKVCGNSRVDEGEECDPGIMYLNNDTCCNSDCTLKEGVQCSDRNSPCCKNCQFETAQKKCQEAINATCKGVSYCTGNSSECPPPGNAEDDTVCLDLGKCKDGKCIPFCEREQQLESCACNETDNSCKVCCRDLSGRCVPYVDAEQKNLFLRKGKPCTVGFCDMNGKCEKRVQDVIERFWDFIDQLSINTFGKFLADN
human ADAMTS-5, sequence (Q9UNA0 262-930): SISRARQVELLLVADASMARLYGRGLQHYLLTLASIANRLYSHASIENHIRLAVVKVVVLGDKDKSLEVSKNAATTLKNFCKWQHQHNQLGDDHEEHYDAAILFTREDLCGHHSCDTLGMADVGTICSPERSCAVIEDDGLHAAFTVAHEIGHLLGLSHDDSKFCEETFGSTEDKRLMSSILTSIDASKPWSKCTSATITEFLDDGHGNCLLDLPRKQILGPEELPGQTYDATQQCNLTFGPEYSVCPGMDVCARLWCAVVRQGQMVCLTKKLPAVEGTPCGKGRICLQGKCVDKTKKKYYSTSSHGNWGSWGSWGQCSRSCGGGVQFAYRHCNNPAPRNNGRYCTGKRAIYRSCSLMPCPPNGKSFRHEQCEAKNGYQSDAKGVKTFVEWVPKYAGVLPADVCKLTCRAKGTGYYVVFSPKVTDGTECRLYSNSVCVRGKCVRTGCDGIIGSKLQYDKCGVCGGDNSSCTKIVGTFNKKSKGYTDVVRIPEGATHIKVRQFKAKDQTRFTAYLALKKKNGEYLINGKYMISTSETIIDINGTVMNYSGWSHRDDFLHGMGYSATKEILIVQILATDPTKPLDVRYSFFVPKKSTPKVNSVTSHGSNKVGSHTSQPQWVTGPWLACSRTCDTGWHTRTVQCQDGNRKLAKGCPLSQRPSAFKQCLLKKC
human ADAMTS6, sequence (Q9UKP5 other isoform, or with tags, fused parts or gaps): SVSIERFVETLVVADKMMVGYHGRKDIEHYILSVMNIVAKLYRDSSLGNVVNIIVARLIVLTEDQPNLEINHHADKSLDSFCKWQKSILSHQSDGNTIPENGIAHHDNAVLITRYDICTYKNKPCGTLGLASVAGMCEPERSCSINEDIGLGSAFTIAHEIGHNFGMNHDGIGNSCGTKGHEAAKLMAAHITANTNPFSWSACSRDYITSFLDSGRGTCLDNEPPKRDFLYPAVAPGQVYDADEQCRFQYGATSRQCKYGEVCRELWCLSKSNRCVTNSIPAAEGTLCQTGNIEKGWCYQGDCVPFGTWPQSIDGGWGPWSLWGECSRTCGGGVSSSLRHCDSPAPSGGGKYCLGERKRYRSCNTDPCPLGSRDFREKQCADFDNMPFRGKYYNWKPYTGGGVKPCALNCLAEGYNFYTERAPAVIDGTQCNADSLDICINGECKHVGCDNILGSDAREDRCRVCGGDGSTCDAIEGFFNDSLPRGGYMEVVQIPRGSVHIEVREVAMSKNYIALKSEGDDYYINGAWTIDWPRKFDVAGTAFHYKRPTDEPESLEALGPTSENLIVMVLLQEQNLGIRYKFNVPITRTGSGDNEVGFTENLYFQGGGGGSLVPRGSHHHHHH
human ADAMTS4, sequence (O75173 213-837): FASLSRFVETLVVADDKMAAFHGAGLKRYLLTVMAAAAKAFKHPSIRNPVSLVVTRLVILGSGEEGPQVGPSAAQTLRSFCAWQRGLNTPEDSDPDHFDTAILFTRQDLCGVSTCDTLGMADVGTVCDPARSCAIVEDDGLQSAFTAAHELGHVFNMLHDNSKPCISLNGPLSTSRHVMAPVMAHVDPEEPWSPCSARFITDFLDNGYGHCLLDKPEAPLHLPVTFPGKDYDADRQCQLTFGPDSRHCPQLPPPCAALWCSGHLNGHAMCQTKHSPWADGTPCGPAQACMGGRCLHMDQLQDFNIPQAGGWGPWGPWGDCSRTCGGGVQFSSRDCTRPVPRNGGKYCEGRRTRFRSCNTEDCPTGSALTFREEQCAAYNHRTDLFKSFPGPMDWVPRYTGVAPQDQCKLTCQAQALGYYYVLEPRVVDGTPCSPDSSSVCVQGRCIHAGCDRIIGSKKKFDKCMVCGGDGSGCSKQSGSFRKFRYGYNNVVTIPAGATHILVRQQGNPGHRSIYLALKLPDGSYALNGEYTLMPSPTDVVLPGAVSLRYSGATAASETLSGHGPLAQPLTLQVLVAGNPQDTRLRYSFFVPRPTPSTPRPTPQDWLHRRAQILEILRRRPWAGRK

Compound | IC50 (human ADAMTS-5) | IC50 (human ADAMTS6) | IC50 (human MMP13 [1]) | IC50 (human MMP14) | IC50 (human TACE) | IC50 (human ADAMTS4; [3]) | IC50 (human MMP13 [2]) | IC50 (human ADAMTS4)
COCC1(CC(C)C(=O)N2CCN(c3ccc(Cl)c(OC)c3)[C@@H](C)C2)NC(=O)NC1=O (mixture of isomers) [Cpd 47, 5-[3-[(3S)-4-(4-chloro-3-methoxy-phenyl)-3-methyl-piperazin-1-yl]-2-methyl-3-oxo-propyl]-5-(methoxymethyl)imidazolidine-2,4-dione] | 25 to 50 nM | 0.001 to 25 nM | > 100 nM | > 100 nM | > 100 nM |  |  | 25 to 50 nM
COC[C@]1(C[C@H](C)C(=O)N2CCN(c3cc(F)c(Cl)c(OC)c3)[C@@H](C)C2)NC(=O)NC1=O (mixture of isomers) [Cpd 121, 5-[3-[(3S)-4-(4-chloro-3-fluoro-5-methoxy-phenyl)-3-methyl-piperazin-1-yl]-2-methyl-3-oxo-propyl]-5-(methoxymethyl)imidazolidine-2,4-dione] | 25 to 50 nM | 0.001 to 25 nM |  | > 100 nM | > 100 nM |  | > 100 nM | 50 to 100 nM
COc1cc(N2CCN(C(=O)C(C)CC3(C)NC(=O)NC3=O)C[C@@H]2C)cc(C)c1Cl (mixture of isomers) [Cpd 125, 5-[3-[(3S)-4-(4-chloro-3-methoxy-5-methyl-phenyl)-3-methyl-piperazin-1-yl]-2-methyl-3-oxo-propyl]-5-methyl-imidazolidine-2,4-dione] | 25 to 50 nM | 0.001 to 25 nM |  | > 100 nM | > 100 nM |  | > 100 nM | 50 to 100 nM
COc1cc(N2CCN(C(=O)[C@@H](C)C[C@H]3NC(=O)NC3=O)CC2)cc(F)c1F (stereo in doubt) [Cpd 51, 5-[3-[4-(3,4-difluoro-5-methoxy-phenyl)piperazin-1-yl]-2-methyl-3-oxo-propyl]imidazolidine-2,4-dione] | > 100 nM | 0.001 to 25 nM |  | > 100 nM | > 100 nM | > 100 nM | > 100 nM | 
COc1cncc(N2CCN(C(=O)[C@@H](C)C[C@@]3(C4CC4)NC(=O)NC3=O)C[C@@H]2C)c1 (stereo in doubt) [Cpd 64, 5-cyclopropyl-5-[3-[(3 S)-4-(5-methoxy-3-pyridyl)-3-methyl-piperazin-1-yl]-2-methyl-3-oxo-propyl]imidazolidine-2,4-dione] | 50 to 100 nM | 50 to 100 nM |  | > 100 nM | > 100 nM | > 100 nM | > 100 nM | 
COc1cc(N2CCN(C(=O)[C@@H](C)C[C@@]3(C)NC(=O)NC3=O)C[C@@H]2C)cc(F)c1Cl (stereo in doubt) [Cpd 120, 5-[3-[(3S)-4-(4-chloro-3-fluoro-5-methoxy-phenyl)-3-methyl-piperazin-1-yl]-2-methyl-3-oxo-propyl]-5-methyl-imidazolidine-2,4-dione] | 0.001 to 25 nM | 0.001 to 25 nM |  | > 100 nM | > 100 nM |  | > 100 nM | 50 to 100 nM
COc1cc(N2CCN(C(=O)CC[C@@]3(C)NC(=O)NC3=O)CC2)cc(F)c1F [Cpd 20, (R)-5-[3-[4-(3,4-difluoro-5-methoxy-phenyl)piperazin-1-yl]-3-oxo-propyl]-5-methyl-imidazolidine-2,4-dione] | > 100 nM | 0.001 to 25 nM | > 100 nM |  | > 100 nM | > 100 nM |  | 
COc1cc(N2CCN(C(=O)CCC3(C)NC(=O)NC3=O)C[C@@H]2C)cc(F)c1F (stereo partly drawn) [Cpd 22, 5-[3-[(3 S)-4-(3,4-difluoro-5-methoxy-phenyl)-3-methyl-piperazin-1-yl]-3-oxo-propyl]-5-methyl-imidazolidine-2,4-dione] | > 100 nM | 0.001 to 25 nM | > 100 nM |  | > 100 nM | > 100 nM |  | 
COc1cc(N2CCN(C(=O)CCC3(C)NC(=O)NC3=O)CC2)cc(Cl)c1Cl (stereo not drawn) [Cpd 48, 5-[3-[4-(3,4-dichloro-5-methoxy-phenyl)piperazin-1-yl]-3-oxo-propyl]-5-methyl-imidazolidine-2,4-dione] | 50 to 100 nM | 0.001 to 25 nM | > 100 nM | > 100 nM | > 100 nM | > 100 nM |  | 
COc1cc(N2CCN(C(=O)CCC3(C)NC(=O)NC3=O)CC2)cc(Cl)c1F (stereo not drawn) [Cpd 50, 5-[3-[4-(3-chloro-4-fluoro-5-methoxy-phenyl)piperazin-1-yl]-3-oxo-propyl]-5-methyl-imidazolidine-2,4-dione] | > 100 nM | 0.001 to 25 nM | > 100 nM |  | > 100 nM | > 100 nM |  | 
COc1cc(N2CCN(C(=O)CC[C@@]3(C)NC(=O)NC3=O)C[C@@H]2C)ccc1Cl [Cpd 55, (5R)-5-[3-[(3 S)-4-(4-chloro-3-methoxy-phenyl)-3-methyl-piperazin-1-yl]-3-oxo-propyl]-5-methyl-imidazolidine-2,4-dione] | 50 to 100 nM | 0.001 to 25 nM |  | > 100 nM | > 100 nM | > 100 nM | > 100 nM | 
COc1cc(Cl)c(C)cc1N1CCN(C(=O)CCC2(C)NC(=O)NC2=O)CC1 (stereo not drawn) [Cpd 58, 5-[3-[4-(4-chloro-2-methoxy-5-methyl-phenyl)piperazin-1-yl]-3-oxo-propyl]-5-methyl-imidazolidine-2,4-dione] | > 100 nM | 25 to 50 nM |  |  | > 100 nM | > 100 nM | > 100 nM | 

More lines, main results first:

IC50 (human ADAMTS-5) | IC50 (human ADAMTS6) | IC50 (human MMP13 [1]) | IC50 (human MMP14) | IC50 (human TACE) | IC50 (human ADAMTS4; [3]) | IC50 (human MMP13 [2]) | Compound | IC50 (human ADAMTS4)
50 to 100 nM | 0.001 to 25 nM |  | > 100 nM | > 100 nM | > 100 nM | > 100 nM | CCc1cc(N2CCN(C(=O)[C@@H](C)C[C@@]3(COC)NC(=O)NC3=O)C[C@@H]2C)cc(OC)c1Cl (mixture of isomers) [Cpd 117, 5-[3-[(3S)-4-(4-chloro-3-ethyl-5-methoxy-phenyl)-3-methyl-piperazin-1-yl]-2-methyl-3-oxo-propyl]-5-(methoxymethyl)imidazolidine-2,4-dione] | 
 | 0.001 to 25 nM |  |  |  | > 100 nM | > 100 nM | CCc1cc(N2CCN(C(=O)[C@@H](C)C[C@@]3(COC)NC(=O)NC3=O)C[C@@H]2C)ccc1Cl (stereo in doubt) [Cpd 124, 5-[3-[(3S)-4-(4-chloro-3-ethyl-phenyl)-3-methyl-piperazin-1-yl]-2-methyl-3-oxo-propyl]-5-(methoxymethyl)imidazolidine-2,4-dione] | 
 | 0.001 to 25 nM |  |  |  | > 100 nM | > 100 nM | CC(C)c1cc(N2CCN(C(=O)CC[C@@]3(C)NC(=O)NC3=O)C[C@@H]2C)ccc1Cl [Cpd 85, (5R)-5-[3-[(3 S)-4-(4-chloro-3-isopropyl-phenyl)-3-methyl-piperazin-1-yl]-3-oxo-propyl]-5-methyl-imidazolidine-2,4-dione] | 
 | 0.001 to 25 nM |  |  |  | > 100 nM | > 100 nM | CCc1cc(N2CCN(C(=O)CCC3(CCC(=O)OC(C)(C)C)NC(=O)NC3=O)C[C@@H]2C)ccc1Cl (stereo partly drawn) [Cpd 114, tert-butyl 3-[4-[3-[(3S)-4-(4-chloro-3-ethyl-phenyl)-3-methyl-piperazin-1-yl]-3-oxo-propyl]-2,5-dioxo-imidazolidin-4-yl]propanoate] | 
 | 0.001 to 25 nM |  |  |  | > 100 nM | > 100 nM | CCc1cc(N2CCN(C(=O)CCC3(CCC(=O)O)NC(=O)NC3=O)C[C@@H]2C)ccc1Cl (stereo partly drawn) [Cpd 116, 3-[4-[3-[(3 S)-4-(4-chloro-3-ethyl-phenyl)-3-methyl-piperazin-1-yl]-3-oxo-propyl]-2,5-dioxo-imidazolidin-4-yl]propanoic acid] | 
> 100 nM | 50 to 100 nM | > 100 nM |  | > 100 nM | > 100 nM |  | COc1cc(N2CCN(C(=O)CC[C@H]3NC(=O)NC3=O)CC2)cc(F)c1F [Cpd 128, (5R)-5-[3-[4-(3,4-difluoro-5-methoxy-phenyl)piperazin-1-yl]-3-oxo-propyl]imidazolidine-2,4-dione] | 
> 100 nM | 0.001 to 25 nM | > 100 nM |  | > 100 nM | > 100 nM |  | COc1cc(N2CCN(C(=O)CC[C@H]3NC(=O)NC3=O)CC2)cc(F)c1Cl [Cpd 143, (5R)-5-[3-[4-(4-chloro-3-fluoro-5-methoxy-phenyl)piperazin-1-yl]-3-oxo-propyl]imidazolidine-2,4-dione] | 
50 to 100 nM | 0.001 to 25 nM | > 100 nM | > 100 nM | > 100 nM | > 100 nM |  | COc1cc(N2CCN(C(=O)CC[C@H]3NC(=O)NC3=O)CC2)cc(Cl)c1Cl [Cpd 145, (5R)-5-[3-[4-(3,4-dichloro-5-methoxy-phenyl)piperazin-1-yl]-3-oxo-propyl]imidazolidine-2,4-dione] | 
